Experimental data: the OligoGym collection
Oligonucleotides are written 5' to 3', each unit as a sugar letter and its base; * is a phosphorothioate linkage, no mark a phosphodiester; rarer units and linkages stand in square brackets, end groups in braces. Plain capitals give the bases only. d = 2'-deoxy (DNA); r = 2'-OH (RNA)

Molecular target: UBE2S
Experiment: reporter assay of Huesken 2005
Settings: siRNA
Note: test concentration or dose not given here.

Substance | normalised inhibition (eCFP-eYFP dual reporter) [%]
sense rArArGrGrUrCrUrUrUrCrCrCrArArCrGrArGrGdTdT / antisense rCrCrUrCrGrUrUrGrGrGrArArArGrArCrCrUrUdGdA | 53
sense rArCrArCrGrUrArCrUrGrCrUrGrArCrCrArUrCdTdT / antisense rGrArUrGrGrUrCrArGrCrArGrUrArCrGrUrGrUdCdG | 59.3
sense rArCrCrCrCrArUrArUrGrCrUrGrGrArGrGrUrCdTdT / antisense rGrArCrCrUrCrCrArGrCrArUrArUrGrGrGrGrUdCdC | 49.9
sense rArCrCrCrGrArUrGrGrCrArUrCrArArGrGrUrCdTdT / antisense rGrArCrCrUrUrGrArUrGrCrCrArUrCrGrGrGrUdGdG | 66.4
sense rArCrGrArGrGrArGrGrCrGrGrGrCrCrGrCrCrUdTdT / antisense rArGrGrCrGrGrCrCrCrGrCrCrUrCrCrUrCrGrUdTdG | 44.3
sense rArCrGrGrCrUrGrArGrCrUrGrGrGrCrArUrCrCdTdT / antisense rGrGrArUrGrCrCrCrArGrCrUrCrArGrCrCrGrUdCdC | 52.3
sense rArCrUrGrArCrCrGrCrArGrArCrCrCrArCrCrCdTdT / antisense rGrGrGrUrGrGrGrUrCrUrGrCrGrGrUrCrArGrUdGdT | 43.6
sense rArGrCrCrGrGrUrCrGrGrGrCrCrCrUrGrGrCrCdTdT / antisense rGrGrCrCrArGrGrGrCrCrCrGrArCrCrGrGrCrUdTdC | 43
sense rArGrCrUrUrCrCrUrCrCrArCrCrGrArCrCrCrUdTdT / antisense rArGrGrGrUrCrGrGrUrGrGrArGrGrArArGrCrUdTdC | 49.4
sense rArGrGrArCrUrUrCrCrCrUrGrCrCrUrCrCrCrCdTdT / antisense rGrGrGrGrArGrGrCrArGrGrGrArArGrUrCrCrUdTdC | 55.2
sense rArGrGrGrCrCrGrArArGrCrCrGrGrUrCrGrGrGdTdT / antisense rCrCrCrGrArCrCrGrGrCrUrUrCrGrGrCrCrCrUdGdC | 49.1
sense rArGrGrGrGrArCrCrCrCrArUrArUrGrCrUrGrGdTdT / antisense rCrCrArGrCrArUrArUrGrGrGrGrUrCrCrCrCrUdCdA | 36.5
sense rArGrUrArUrGrCrArGrCrUrCrGrGrGrCrCrCrGdTdT / antisense rCrGrGrGrCrCrCrGrArGrCrUrGrCrArUrArCrUdCdC | 49.8
sense rArGrUrGrCrCrUrGrCrUrGrArUrCrCrArCrCrCdTdT / antisense rGrGrGrUrGrGrArUrCrArGrCrArGrGrCrArCrUdTdG | 55.7
sense rArUrCrUrUrCrCrArCrCrCrGrArArCrGrUrGrGdTdT / antisense rCrCrArCrGrUrUrCrGrGrGrUrGrGrArArGrArUdCdT | 31.6
sense rArUrGrCrUrGrGrCrGrArGrCrGrCrGrArUrArAdTdT / antisense rUrUrArUrCrGrCrGrCrUrCrGrCrCrArGrCrArUdGdC | 71.3
sense rArUrGrGrCrArUrCrArArGrGrUrCrUrUrUrCrCdTdT / antisense rGrGrArArArGrArCrCrUrUrGrArUrGrCrCrArUdCdG | 56.5
sense rCrArArGrUrGrCrCrUrGrCrUrGrArUrCrCrArCdTdT / antisense rGrUrGrGrArUrCrArGrCrArGrGrCrArCrUrUrGdAdT | 63.5
sense rCrArCrCrCrArArGrGrGrCrUrArCrUrUrCrCrUdTdT / antisense rArGrGrArArGrUrArGrCrCrCrUrUrGrGrGrUrGdGdG | 81.5
sense rCrCrArCrCrCrArArGrGrGrCrUrArCrUrUrCrCdTdT / antisense rGrGrArArGrUrArGrCrCrCrUrUrGrGrGrUrGrGdGdG | 54.7
sense rCrCrArCrCrCrGrArUrGrGrCrArUrCrArArGrGdTdT / antisense rCrCrUrUrGrArUrGrCrCrArUrCrGrGrGrUrGrGdGdT | 47.2
sense rCrCrCrArArCrGrArGrGrArGrGrArCrCrUrCrAdTdT / antisense rUrGrArGrGrUrCrCrUrCrCrUrCrGrUrUrGrGrGdAdA | 54
sense rCrCrCrGrUrCrUrGrCrUrCrArCrArGrArGrArUdTdT / antisense rArUrCrUrCrUrGrUrGrArGrCrArGrArCrGrGrGdCdC | 70.1
sense rCrCrCrUrGrArGrGrGrGrArCrCrCrCrArUrArUdTdT / antisense rArUrArUrGrGrGrGrUrCrCrCrCrUrCrArGrGrGdCdC | 46.5
sense rCrCrGrArArCrGrUrGrGrGrCrGrCrCrArArUrGdTdT / antisense rCrArUrUrGrGrCrGrCrCrCrArCrGrUrUrCrGrGdGdT | 44.9
sense rCrCrUrGrArGrGrGrGrArCrCrCrCrArUrArUrGdTdT / antisense rCrArUrArUrGrGrGrGrUrCrCrCrCrUrCrArGrGdGdC | 25.2

Substance | normalised inhibition (eCFP-eYFP dual reporter) [%]
sense rCrCrUrGrCrUrCrUrUrGrGrArGrArArCrUrArCdTdT / antisense rGrUrArGrUrUrCrUrCrCrArArGrArGrCrArGrGdCdG | 70.7
sense rCrGrArGrUrCrUrGrCrArCrUrCrArArCrGrArGdTdT / antisense rCrUrCrGrUrUrGrArGrUrGrCrArGrArCrUrCrGdGdG | 70.6
sense rCrGrCrArGrArCrCrCrArCrCrCrGrArUrGrGrCdTdT / antisense rGrCrCrArUrCrGrGrGrUrGrGrGrUrCrUrGrCrGdGdT | 51.5
sense rCrGrGrUrCrGrGrGrCrCrCrUrGrGrCrCrArGrUdTdT / antisense rArCrUrGrGrCrCrArGrGrGrCrCrCrGrArCrCrGdGdC | 41.5
sense rCrGrUrCrArArCrGrUrGrCrUrCrArArGrArGrGdTdT / antisense rCrCrUrCrUrUrGrArGrCrArCrGrUrUrGrArCrGdCdA | 63.1
sense rCrUrCrCrArCrCrGrArCrCrCrUrGrGrGrGrCrCdTdT / antisense rGrGrCrCrCrCrArGrGrGrUrCrGrGrUrGrGrArGdGdA | 44
sense rCrUrCrGrGrGrCrCrCrGrUrCrUrGrCrUrCrArCdTdT / antisense rGrUrGrArGrCrArGrArCrGrGrGrCrCrCrGrArGdCdT | 55
sense rCrUrGrCrGrUrCrArArCrGrUrGrCrUrCrArArGdTdT / antisense rCrUrUrGrArGrCrArCrGrUrUrGrArCrGrCrArGdAdT | 67.8
sense rCrUrGrCrUrCrArCrArGrArGrArUrCrCrArCrGdTdT / antisense rCrGrUrGrGrArUrCrUrCrUrGrUrGrArGrCrArGdAdC | 54.8
sense rCrUrGrGrCrGrArGrCrGrCrGrArUrArArGrArAdTdT / antisense rUrUrCrUrUrArUrCrGrCrGrCrUrCrGrCrCrArGdCdA | 82.4
sense rCrUrGrGrGrGrArArGrGrArCrUrUrCrCrCrUrGdTdT / antisense rCrArGrGrGrArArGrUrCrCrUrUrCrCrCrCrArGdCdA | 40.4
sense rCrUrUrUrCrCrCrArArCrGrArGrGrArGrGrArCdTdT / antisense rGrUrCrCrUrCrCrUrCrGrUrUrGrGrGrArArArGdAdC | 33.9
sense rGrArCrArCrGrUrArCrUrGrCrUrGrArCrCrArUdTdT / antisense rArUrGrGrUrCrArGrCrArGrUrArCrGrUrGrUrCdGdG | 85.5
sense rGrArCrCrCrArCrCrCrGrArUrGrGrCrArUrCrAdTdT / antisense rUrGrArUrGrCrCrArUrCrGrGrGrUrGrGrGrUrCdTdG | 61.7
sense rGrArGrGrArGrUrArUrGrCrArGrCrUrCrGrGrGdTdT / antisense rCrCrCrGrArGrCrUrGrCrArUrArCrUrCrCrUrCdGdT | 56.7
sense rGrArGrGrGrCrCrCrUrGrArGrGrGrGrArCrCrCdTdT / antisense rGrGrGrUrCrCrCrCrUrCrArGrGrGrCrCrCrUrCdGdA | 44.6
sense rGrArGrGrGrGrCrUrGrArGrGrGrUrCrCrCrArUdTdT / antisense rArUrGrGrGrArCrCrCrUrCrArGrCrCrCrCrUrCdCdC | 45
sense rGrArGrUrArUrGrCrArGrCrUrCrGrGrGrCrCrCdTdT / antisense rGrGrGrCrCrCrGrArGrCrUrGrCrArUrArCrUrCdCdT | 53.4
sense rGrArGrUrCrUrGrCrArCrUrCrArArCrGrArGrGdTdT / antisense rCrCrUrCrGrUrUrGrArGrUrGrCrArGrArCrUrCdGdG | 71.5
sense rGrCrArCrUrCrArArCrGrArGrGrArGrGrCrGrGdTdT / antisense rCrCrGrCrCrUrCrCrUrCrGrUrUrGrArGrUrGrCdAdG | 48.5
sense rGrCrArCrUrGrArArGrCrUrUrCrCrUrCrCrArCdTdT / antisense rGrUrGrGrArGrGrArArGrCrUrUrCrArGrUrGrCdCdA | 58.5
sense rGrCrCrArGrUrGrGrCrArCrUrGrArArGrCrUrUdTdT / antisense rArArGrCrUrUrCrArGrUrGrCrCrArCrUrGrGrCdCdA | 57.9
sense rGrCrCrCrArGrCrGrGrCrArGrGrGrCrCrGrArAdTdT / antisense rUrUrCrGrGrCrCrCrUrGrCrCrGrCrUrGrGrGrCdCdC | 42
sense rGrCrCrUrCrCrCrCrArCrCrCrArArGrGrGrCrUdTdT / antisense rArGrCrCrCrUrUrGrGrGrUrGrGrGrGrArGrGrCdAdG | 46.3
sense rGrCrCrUrGrCrUrCrUrUrGrGrArGrArArCrUrAdTdT / antisense rUrArGrUrUrCrUrCrCrArArGrArGrCrArGrGrCdGdG | 76
sense rGrCrUrGrGrGrGrArArGrGrArCrUrUrCrCrCrUdTdT / antisense rArGrGrGrArArGrUrCrCrUrUrCrCrCrCrArGrCdAdG | 53.9
